Source: patent US6228872A, “Neurotrophic diamide and carbamate agents” (Bristol-Myers Squibb Company, priority 1999, dated 2001)
Where two headings read alike, the source gives them in different places. Blank lines part the entries; values can stand above or below the compound they belong to.

Tests used:
FKBP12 = FKBP12 (Homo sapiens, UniProt P62942); test: FKBP12 Rotamase Inhibition Assay; format: biochemical; conditions: for inhibition at 10 µM: read-out: % inhib. at 10 μM; for Ki: apparent Ki, 4° C., substrate succinyl-Ala-Leu-Pro-Phe-p-nitroanilide
Method: FKBP12 Rotamase Inhibition Assay
The rotamase activity of FKBP-12 was measured by an adaptation of the assay described by Kofron et al. (Biochemistry, 30, pp. 6127-6134 (1991)). The assay was carried out at 4° C. with 1 mg chymotrypsin/mL of assay with succinyl-Ala-Leu-Pro-Phe-p-nitroanilide as the substrate. Chymotrypsin rapidly hydrolyzes the peptide bond on the C-terminal side of the Phe of the trans form of the peptide and releases the chromogenic p-nitroaniline. The rate of the reaction is controlled by the rate of conversion of the cis form of the peptide to the trans-form, the reaction catalyzed by FKBP12. The apparent Ki values for inhibition of the rotamase activity were determined by measuring decreases in the first order rate constant of the reaction catalyzed by FKBP12 as a function of the concentrations of the compounds described herein. Ki is the concentration of the compound that causes 50 percent inhibition of rotamase activity which is indicative of neurite outgrowth activity.

[1] = in vitro and in vivo; cited from earlier work
HIV-infected cells = conditions: cited from earlier work
[2] = Table 2, 1 μM (values marked *), read-out: % inhib. at 1 μM*
[3] = Table 3, 1 μM, read-out: % rotamase inhib. at 1 μM
[4] = Table 4, 1 μM, read-out: % rotamase inhib. at 1 μM

Chain of FKBP12 (P62942 whole entry, species assumed): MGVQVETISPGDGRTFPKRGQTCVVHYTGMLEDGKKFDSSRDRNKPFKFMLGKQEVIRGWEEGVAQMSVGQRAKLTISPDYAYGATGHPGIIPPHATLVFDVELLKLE

inhibition at 10 µM (FKBP12; Table 2): 99% | Ki (FKBP12; Table 2): 577 nM
Compound: COc1cc(C(F)(F)C(=O)N2CCC[C@H]2COC(=O)N(CCCc2cccnc2)Cc2ccccc2)cc(OC)c1OC [Example 28, N-(3,4,5-Trimethoxyphenyl)-difluoroacetyl-L-pyrrolidinylmethyl-[N',N'-3-(3-pyridyl)propyl-benzylamino]carbamate]

inhibition at 1 µM (FKBP12; [2]): 80%
Compound: COc1cc(C(F)(F)C(=O)N2CCC[C@H]2COC(=O)N(CCCCc2cccnc2)CCCc2ccccc2)cc(OC)c1OC [Example 29, N-(3,4,5-Trimethoxyphenyl)-difluoroacetyl-L-pyrrolidinylmethyl-[N',N'-4-(3-pyridyl)butyl-3-phenylpropylamino]carbamate]

inhibition at 10 µM (FKBP12; Table 2): 97%
Compound: COc1cc(C(F)(F)C(=O)N2CCC[C@H]2COC(=O)N(CCCCc2cccnc2)CCc2ccccc2)cc(OC)c1OC [Example 30, N-(3,4,5-Trimethoxyphenyl)-difluoroacetyl-L-pyrrolidinylmethyl-[N',N'-4-(3-pyridyl)butyl-2-phenylethylamino]carbamate]

inhibition at 1 µM (FKBP12; [2]): 63% | Ki (FKBP12; Table 2): 686 nM
Compound: COc1cc(C(F)(F)C(=O)N2CCC[C@H]2COC(=O)N(CCCCc2cccnc2)Cc2ccccc2)cc(OC)c1OC [Example 31, N-(3,4,5-Trimethoxyphenyl)-difluoroacetyl-L-pyrrolidinylmethyl-[N',N'-4-(3-pyridyl)butyl-benzylamino]carbamate]

inhibition at 1 µM (FKBP12; [3]): 93%
Compound: COc1cccc(CCN(CCCc2cccnc2)C(=O)OC[C@@H]2CCCN2C(=O)C(F)(F)c2cc(OC)c(OC)c(OC)c2)c1 [Example 32, N-(3,4,5-Trimethoxyphenyl)-difluoroacetyl-L-pyrrolidinylmethyl-[N',N'-3-(3-pyridyl)propyl-2-(3-methoxyphenyl)ethylamino]carbamate]

inhibition at 1 µM (FKBP12; [3]): 96%
Compound: COc1ccc(CCN(CCCc2cccnc2)C(=O)OC[C@@H]2CCCN2C(=O)C(F)(F)c2cc(OC)c(OC)c(OC)c2)cc1OC [Example 33]

inhibition at 1 µM (FKBP12; [3]): 96%
Compound: COc1cc(C(F)(F)C(=O)N2CCC[C@H]2COC(=O)N(CCCc2cccnc2)CCc2cccc(C(F)(F)F)c2)cc(OC)c1OC [Example 34, N-(3,4,5-Trimethoxyphenyl)-difluoroacetyl-L-pyrrolidinylmethyl-[N',N'-3-(3-pyridyl)propyl-2-(3-trifluoromethylphenyl)ethylamino]carbamate]

inhibition at 1 µM (FKBP12; [3]): 94%
Compound: COc1cc(C(F)(F)C(=O)N2CCC[C@H]2COC(=O)N(CCCc2ccc(C(=O)O)cc2)CCCc2cccnc2)cc(OC)c1OC [Example 35, N-(3,4,5-Trimethoxyphenyl)-difluoroacetyl-L-pyrrolidinylmethyl-[N',N'-3-(3-pyridyl)propyl-3-(4-carboxyphenyl)propylamino]carbamate]

inhibition at 1 µM (FKBP12; [3]): 77%
Compound: COc1cc(C(F)(F)C(=O)N2CCC[C@H]2COC(=O)N(CCCc2ccc(C(=O)OCc3ccccc3)cc2)CCCc2cccnc2)cc(OC)c1OC [Example 36, N-(3,4,5-Trimethoxyphenyl)-difluoroacetyl-L-pyrrolidinylmethyl-[N',N'-3-(3-pyridyl)propyl-3-(4-benzyloxycarbonylphenyl)propylamino]carbamate]

inhibition at 1 µM (FKBP12; [3]): 93%
Compound: COc1cccc(CCCN(CCCc2cccnc2)C(=O)OC[C@@H]2CCCN2C(=O)C(F)(F)c2cc(OC)c(OC)c(OC)c2)c1 [Example 37, N-(3,4,5-Trimethoxyphenyl)-difluoroacetyl-L-pyrrolidinylmethyl-[N',N'-3-(3-pyridyl)propyl-3-(3-methoxyphenyl)propylamino]carbamate]

inhibition at 1 µM (FKBP12; [3]): 95%
Compound: COc1ccc(CCCN(CCCc2cccnc2)C(=O)OC[C@@H]2CCCN2C(=O)C(F)(F)c2cc(OC)c(OC)c(OC)c2)cc1 [Example 38, N-(3,4,5-Trimethoxyphenyl)-difluoroacetyl-L-pyrrolidinylmethyl-[N',N'-3-(3-pyridyl)propyl-3-(4-methoxyphenyl)propylamino]carbamate]

inhibition at 1 µM (FKBP12; [3]): 92%
Compound: COc1cc(CCCN(CCCc2cccnc2)C(=O)OC[C@@H]2CCCN2C(=O)C(F)(F)c2cc(OC)c(OC)c(OC)c2)cc(OC)c1OC [Example 39, N-(3,4,5-Trimethoxyphenyl)-difluoroacetyl-L-pyrrolidinylmethyl-[N',N'-3-(3-pyridyl)propyl-3-(3,4,5-trimethoxyphenyl)propylamino]carbamate]

inhibition at 1 µM (FKBP12; [3]): 98%
Compound: COc1ccc(CCCCN(CCCc2cccnc2)C(=O)OC[C@@H]2CCCN2C(=O)C(F)(F)c2cc(OC)c(OC)c(OC)c2)cc1OC [Example 40, N-(3,4,5-Trimethoxyphenyl)-difluoroacetyl-L-pyrrolidinylmethyl-[N',N'-3-(3-pyridyl)propyl-4-(3,4-dimethoxyphenyl)butylamino]carbamate]

inhibition at 1 µM (FKBP12; [4]): 0%
Compound: COc1cc(C(F)(F)C(=O)N2CCCC[C@H]2CCC(=O)N(CCCc2ccccc2)CCCc2cccnc2)cc(OC)c1OC [Example 44, N,N-(3-Phenylpropyl)-3-(3-pyridyl)propyl-2-[(S)-N'-(3,4,5-Trimethoxyphenyl)-difluoroacetyl-2-piperidinyl]propionamide]

inhibition at 1 µM (FKBP12; [4]): 42%
Compound: COc1cc(C(F)(F)C(=O)N2CCC[C@H]2CCC(=O)N(CCCc2ccccc2)CCCc2cccnc2)cc(OC)c1OC [Example 45, N,N-(3-Phenylpropyl)-3-(3-pyridyl)propyl-2-[(S)-N'-(3,4,5-Trimethoxyphenyl)-difluoroacetyl-2-pyrrolidinyl]propionamide]

Compound: C=CC[C@@H]1/C=C(\C)C[C@H](C)C[C@H](OC)[C@H]2O[C@@](O)(C(=O)C(=O)N3CCCC[C@H]3C(=O)O[C@H](/C(C)=C/[C@@H]3CC[C@@H](O)[C@H](OC)C3)[C@H](C)[C@@H](O)CC1=O)[C@H](C)C[C@@H]2OC [FK506]
neurotrophic properties [1]: possess neurotrophic properties in vitro and in vivo | inhibition of growth of HIV-infected cells (HIV-infected cells): inhibits the growth of HIV-infected cells
